Data set [1] addresses T1, Broad substrate specificity ATP-binding cassette transporter ABCG2 (Homo sapiens, UniProt Q9UNQ0).
T1 sequence (Q9UNQ0 whole entry): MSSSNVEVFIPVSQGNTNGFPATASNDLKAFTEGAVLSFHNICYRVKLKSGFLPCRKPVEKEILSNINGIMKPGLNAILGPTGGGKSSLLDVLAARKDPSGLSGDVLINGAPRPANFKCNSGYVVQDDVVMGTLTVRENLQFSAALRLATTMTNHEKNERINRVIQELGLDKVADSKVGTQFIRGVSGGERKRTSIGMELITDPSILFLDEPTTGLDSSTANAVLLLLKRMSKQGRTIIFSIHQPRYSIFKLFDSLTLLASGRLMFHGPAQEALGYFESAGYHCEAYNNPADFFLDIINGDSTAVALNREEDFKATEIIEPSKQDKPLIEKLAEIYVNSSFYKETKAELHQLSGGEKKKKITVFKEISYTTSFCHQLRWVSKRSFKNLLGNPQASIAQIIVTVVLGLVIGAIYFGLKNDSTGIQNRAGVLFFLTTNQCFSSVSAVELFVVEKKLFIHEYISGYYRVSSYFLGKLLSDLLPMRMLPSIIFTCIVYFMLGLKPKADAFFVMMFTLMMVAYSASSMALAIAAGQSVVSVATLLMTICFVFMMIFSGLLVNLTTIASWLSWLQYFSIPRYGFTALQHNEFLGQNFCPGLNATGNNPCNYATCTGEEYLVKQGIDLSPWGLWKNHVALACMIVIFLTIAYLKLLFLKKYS
Description: (§1) TP_TRANSPORTER: uptake (vesicle) in membrane vesicles from BCRP-expressing MCF7 cells. It counts as functional, cell membranes.

Data set [2] addresses T1, Broad substrate specificity ATP-binding cassette transporter ABCG2. In words: TP_TRANSPORTER: inhibition of MTX in membrane vesicles from BCRP-expressing MCF7 cells. The format is functional, cell membranes, Membrane vesicle.
Data set [3] has the same target. In words: TP_TRANSPORTER: inhibition of MTX update by Mitoxantrone at a concentration of 50uM in membrane vesicles from BCRP-expressing MCF7 cells. The format is functional, cell membranes, Membrane vesicle. The following applies: mcf7, 50 µM. The arrangement: scale not given: the % may be the effect or the level left.
Substrate in data set [4]: CN(Cc1cnc2nc(N)nc(N)c2n1)c1ccc(C(=O)N[C@@H](CCC(=O)O)C(=O)O)cc1
The data set is described as §1. It counts as functional, cell membranes.

`CN(Cc1cnc2nc(N)nc(N)c2n1)c1ccc(C(=O)N[C@@H](CCC(=O)N[C@@H](CCC(=O)N[C@@H](CCC(=O)N[C@@H](CCC(=O)O)C(=O)O)C(=O)O)C(=O)O)C(=O)O)cc1`: in data set [1], the Activity entry was “substrate []”.
Turning to `COc1ccc2c3c([nH]c2c1)[C@H](C=C(C)C)N1C(=O)[C@@H]2CCCN2C(=O)[C@@H]1C3` [FUMITREMORGIN], the Activity result in data set [2] is “inhibitor []”.
`O=C1c2c(O)ccc(O)c2C(=O)c2c(NCCNCCO)ccc(NCCNCCO)c21` [MITOXANTRONE] returned an Activity in data set [3] of 50%.
With `CN(Cc1cnc2nc(N)nc(N)c2n1)c1ccc(C(=O)N[C@@H](CCC(=O)N[C@@H](CCC(=O)N[C@@H](CCC(=O)O)C(=O)O)C(=O)O)C(=O)O)cc1`, the Activity result in data set [1] was “substrate []”.

B1: Broad substrate specificity ATP-binding cassette transporter ABCG2 (Homo sapiens) (protein)
chain: MSSSNVEVFIPVSQGNTNGFPATASNDLKAFTEGAVLSFHNICYRVKLKSGFLPCRKPVEKEILSNINGIMKPGLNAILGPTGGGKSSLLDVLAARKDPSGLSGDVLINGAPRPANFKCNSGYVVQDDVVMGTLTVRENLQFSAALRLATTMTNHEKNERINRVIQELGLDKVADSKVGTQFIRGVSGGERKRTSIGMELITDPSILFLDEPTTGLDSSTANAVLLLLKRMSKQGRTIIFSIHQPRYSIFKLFDSLTLLASGRLMFHGPAQEALGYFESAGYHCEAYNNPADFFLDIINGDSTAVALNREEDFKATEIIEPSKQDKPLIEKLAEIYVNSSFYKETKAELHQLSGGEKKKKITVFKEISYTTSFCHQLRWVSKRSFKNLLGNPQASIAQIIVTVVLGLVIGAIYFGLKNDSTGIQNRAGVLFFLTTNQCFSSVSAVELFVVEKKLFIHEYISGYYRVSSYFLGKLLSDLLPMRMLPSIIFTCIVYFMLGLKPKADAFFVMMFTLMMVAYSASSMALAIAAGQSVVSVATLLMTICFVFMMIFSGLLVNLTTIASWLSWLQYFSIPRYGFTALQHNEFLGQNFCPGLNATGNNPCNYATCTGEEYLVKQGIDLSPWGLWKNHVALACMIVIFLTIAYLKLLFLKKYS
On to B1, for which the Km (usually the concentration of substrate that gives half-maximal velocity) in data set [4] amounted to 680 µM.
